{"source": "patent US6011015A", "about": "“Angiotensin II for improving fertilization” (Queen Mary & Westfield College, priority 1994, dated 2000)", "format_in_all_cases": "cell-based", "key": {"Human sperm [1]": {"tested_on": "Human sperm", "assay": "Sperm motility by computer system (VCL and ALH)", "conditions": "angiotensin II amide (1 nmole/l) versus unstimulated controls, over 30 minutes", "description": "Sperm samples were obtained from the same source as Example 1. One series of samples was kept as controls. TO a second series angiotensin II amide (1 nmole/l) was added.\nSperm motility was assayed by using a computer system which measures different aspects of sperm motility, namely curvilinear velocity (VCL) and amplitude of lateral head displacement (ALH)."}, "Human sperm [2]": {"tested_on": "Human sperm", "assay": "Percentage motility of human sperm, counted from video recordings in a Makler chamber", "description": "Human sperm sample were obtained from 12 volunteers and patients attending the Newham Hospital assisted fertility clinic. Samples were suspended in modified minimum essential medium with Earle's salts (MEM) and glutamine and viewed in a Makler chamber using an Olympus inverted microscope fitted with an Olympus ARTF-2 video camera. Fields were recorded on video tape and percentage motility evaluated at 1 min and 5 min. After mixing with MEM alone (unstimulated controls) or with MEM containing 1 nmole/litre angiotensin II amide.\nIn practice, rigid use of this definition was rarely necessary as sperm were either completely immotile or progressed freely.\nA series of six sperm samples, obtained from the same source as Example 1, were mixed either with unmodified MEM, or MEM containing DuP-753 (1 nmole/l).\nPercentage motility was estimated in the same way as in Example 1.\n(§1) Effect of Angiotensin II on Sperm Velocity Sperm samples were obtained from the same source as Example 1. One series of samples was kept as controls. To a second series Angiotensin II amide (10 nmole/l) was added. A third series was treated with monoclonal antibody to the AT1, receptor before angiotensin was added.\nSperm samples were obtained from the same source as Example 1. One series of samples was kept as controls. A second series was exposed to angiotensin II (1 μmole/l) for five minutes. A third series was exposed to angiotensin II (1 μmole/l) for 5 minutes and then DuP-753 (1 μmole/l) was added.\nThe percentage of motile sperm was measured using the same method as was used in Example 1."}, "Human sperm [3]": {"tested_on": "Human sperm", "assay": "Forward progressive sperm velocity, timed manually across the Makler chamber grid", "conditions": "Angiotensin II amide (10 nmole/l); FIG. 3(a)", "description": "as §1\nVelocity was measured by timing forwardly progressive sperm traversing the grid on the Makler Chamber and timing them manually."}}, "note": "Structures can show the parent of a compound that is named as a salt."}
{"molecule": "angiotensin II amide", "values": [{"measurement": "curvilinear velocity (VCL)", "setting": "Human sperm [1]; FIGS. 6 and 8", "result": "stimulates"}, {"measurement": "amplitude of lateral head displacement (ALH)", "setting": "Human sperm [1]; FIGS. 7 and 8", "result": "stimulates"}]}
{"molecule": "angiotensin II (DRVYIHPF; Angiotensin-2; UniProt P01019 25-32, looked up) [octapeptide hormone of the renin-angiotensin system]", "values": [{"measurement": "percentage motility after 5 minutes compared with percentage motility after 1 minute", "setting": "Human sperm [2]; MEM containing 1 nmole/litre angiotensin II amide, 12 human sperm samples, FIG. 1(b)", "result": "significantly different"}, {"measurement": "percentage of sperm which were motile after 5 minutes compared with the controls", "setting": "Human sperm [2]; angiotensin II (1 μmole/l) for five minutes, in most samples, FIG. 4", "result": "enhanced"}, {"measurement": "forward progressive velocity compared with the untreated controls", "setting": "Human sperm [3]", "result": "significantly stimulated"}]}
{"molecule": "CCCCc1nc(Cl)c(CO)n1Cc1ccc(-c2ccccc2-c2nn[nH]n2)cc1", "note": "[DuP-753, 2-n-butyl-4-chloro-5-hydroxymethyl-1-[(2'-(1H-tetrazol-5-yl)biphenyl-4-yl)methyl] imidazole, potassium salt, reference compound]", "values": [{"measurement": "percentage motility relative to the untreated controls", "setting": "Human sperm [2]; MEM containing DuP-753 (1 nmole/l), six sperm samples, FIG. 2", "result": "significantly decreased"}, {"measurement": "effect on the angiotensin II enhancement of the percentage of motile sperm", "setting": "Human sperm [2]; angiotensin II (1 μmole/l) for 5 minutes, then DuP-753 (1 μmole/l) added, FIG. 4", "result": "generally reduced"}]}
